“And” between values parts separate entries of the source, which are not always exact repeats. Equal entries are not always repeated. Where two headings read alike, the source gives them in different places. One block for each molecule: values may come before it.
How the values were obtained:
[1] = solid form stability on storage at elevated temperature/humidity, by XRPD; format: physicochemical; details: for Stability: further changes / Stability: XRPD; for Stability: storage at 40° C./75% RH, days as in the value
Method: To 20 mg of [4-(6-fluoro-7-methylamino-2,4-dioxo-1,4-dihydro-2H-quinazolin-3-yl)-phenyl]-5-chloro-thiophen-2-yl-sulfonylurea in 3 mL of the various solvents, was added 1.1 eq. of the base in 1 mL solvent. The mixture was shaken for 2 hours and the solutions were left to evaporate down to half their volume to try to precipitate out the salt. […] Oils/emulsions and opaque liquids were left to maturate at 50° C./ambient in an 8 hour cycles for several weeks. […] Solid samples (crystalline and amorphous) were then filtered, dried and then analyzed to judge their purity, crystallinity and stability. Solids were analysed by ^1H NMR to confirm salt formation and analyzed by ion chromatography and TGA to obtain the stoichiometry of the salt.

[2] = gravimetric vapour sorption (GVS); format: physicochemical; details: for GVS: Total weight change 0-90% RH: 25° C.; for GVS: XRPD post GVS: wrapped cells read: shows new form / matches stability samples / shows no change
Method: Sorption isotherms were obtained using a Hiden IGASorp moisture sorption analyser, controlled by CFRSorp software. The sample temperature was maintained at 25° C. by a Huber re-circulating water bath. The humidity was controlled by mixing streams of dry and wet nitrogen, with a total flow rate of 250 ml.min^−1. […] (typical room conditions). A moisture sorption isotherm was performed as outlined below (2 scans giving 1 complete cycle). […] The software uses a least squares minimisation procedure together with a model of the mass relaxation, to predict an asymptotic value. […] The minimum equilibration time was set to 1 hour and the maximum to 4 hours. The sample was recovered after completion of the isotherm and re-analysed by XRPD.

[3] = for Aqueous solubility**: aqueous thermodynamic solubility, 25° C., 24 hours, expressed as free base equivalents, 100 mg scale-up samples
Method: The suspension was then filtered through a glass fibre C filter into a 96 well plate. […] Quantitation was by HPLC with reference to a standard solution of approximately 0.1 mg.ml^−1. in DMSO. Different volumes of the standard, diluted and undiluted sample solutions were injected.
If there was sufficient solid in the filter plate, the XRPD pattern was collected.

[4] = molecular target: T1, P2Y12 receptor on platelets (Homo sapiens, UniProt Q9H244); assay: platelet ADP receptor binding assay (ARB), inhibition of [3H]2-MeS-ADP binding to platelets
T1 construct: endogenous in cells; host or cells: whole apyrase-washed human platelets (outdated from hospital blood banks, or fresh)
Method: 1. The Ability of Candidate Molecules to Inhibit the Binding of [3H]2-MeS-ADP to the P2Y12 Receptor on Platelets was Determined Using a Radioligand Binding Assay
Utilizing this assay the potency of inhibition of such compounds with respect to [^3H]2-MeS-ADP binding to whole platelets is determined. Under the conditions described in II (3) below, the binding of [^3H]2-MeS-ADP is solely due to the interaction of this ligand with the P2Y12 receptor, in that all the specific binding measured in this assay is compatable with a P2Y12 antagonist (i.e., the specific binding is reduced to background levels by competition with an excess of P2Y12 antagonist, with no competition of binding when a P2Y1 antagonist is pre-incubated with the platelet preparation). […]
A platelet ADP receptor binding assay (ARB) using the tritiated potent agonist ligand [^3H]2-MeS-ADP (Jantzen, H. M. et al. (1999) Thromb. Hemost. 81:111-117) has been adapted to the 96-well microtiter format. […] Total binding is determined in the absence of test compounds. […] The platelet-bound radioactivity on the filtermats is determined in a scintillation counter (Microbeta 1450, Wallac Inc., Gaithersburg, Md.). Specific binding is determined by subtraction of non-specific binding from total binding, and specific binding in the presence of test compounds is expressed as % of specific binding in the absence of test compound dilutions. […]

[5] = system: ADP-induced human platelet aggregation; assay: inhibition of ADP-mediated platelet aggregation in platelet-rich plasma (PRP assay); format: cell-based
Method: The effect of testing the compound according to the invention on ADP-induced human platelet aggregation was assessed in a 96-well microtiter assay (see generally the procedures in Jantzen, H. M. et al. (1999) Thromb. Hemost. 81:111′-117) or standard cuvette light transmittance aggregometry using either human platelet-rich plasma (PRP) or human washed platelets.
For preparation of human platelet-rich plasma for aggregation assays, human venous blood was collected from healthy, drug-free volunteers into 0.38% sodium citrate (0.013 M, pH 7.0 final). Platelet-rich plasma (PRP) is prepared by centrifugation of whole blood at 160×g for 20 minutes at room temperature. […]
For cuvette light transmittance aggregation assays, serial dilutions (1:3) of test compounds were prepared in 100% DMSO in a 96 well V-bottom plate (final DMSO concentration in the cuvette was 0.6%). […] The aggregation reaction is recorded for ˜5 mins, and maximum extent of aggregation is determined by the difference in extent of aggregation at baseline, compared to the maximum aggregation that occurs during the five minute period of the assay. Inhibition of aggregation was calculated as the maximum aggregation observed in the presence of inhibitor, compared to that in the absence of inhibitor. […]

[6] = after a further 10 days at 60° C./75% RH
[7] = a further 4 days at 60° C./75% RH (figure legend)
[8] = storage, time not stated (figure legend)

T1 sequence (Q9H244 whole entry): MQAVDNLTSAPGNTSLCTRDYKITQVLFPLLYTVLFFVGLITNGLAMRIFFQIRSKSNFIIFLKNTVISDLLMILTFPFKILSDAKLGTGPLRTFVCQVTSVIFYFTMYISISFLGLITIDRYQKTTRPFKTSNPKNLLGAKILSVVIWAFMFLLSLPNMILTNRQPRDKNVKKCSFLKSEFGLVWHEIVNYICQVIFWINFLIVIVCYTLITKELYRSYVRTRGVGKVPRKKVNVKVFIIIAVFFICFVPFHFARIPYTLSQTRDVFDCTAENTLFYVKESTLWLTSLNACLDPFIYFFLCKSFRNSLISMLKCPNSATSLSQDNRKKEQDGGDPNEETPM

Molecule: CNc1cc2[nH]c(=O)n(-c3ccc(NC(=O)NS(=O)(=O)c4ccc(Cl)s4)cc3)c(=O)c2cc1F.[Na] [Sodium Ethoxide, [4-(6-fluoro-7-methylamino-2,4-dioxo-1,4-dihydro-2H-quinazolin-3-yl)-phenyl]-5-chloro-thiophen-2-yl-sulfonylurea sodium salt]
Stability: further changes ([1]; after 10 days at 40° C./75% RH): at 40° C./75% RH (no | Stability ([1]; sodium salt): Some changes after 2 days | GVS: Total weight change 0-90% RH [2]: 8.8 wt %, little hysteresis, | GVS: XRPD post GVS [2]: XRPD post GVS shows new | Aqueous solubility** [3]: 7700 µg/mL

stability by XRPD ([1]; 3 days at 40° C./75% RH): remains stable | Stability: further changes [1, 6]: No changes | Stability [1]: No changes after 3 days | stability by XRPD [1, 7]: remains stable | GVS: Total weight change 0-90% RH [2]: 13 wt %, mostly 80-90% RH, | GVS: XRPD post GVS [2]: XRPD post GVS matches
Molecule: [4-(6-fluoro-7-methylamino-2,4-dioxo-1,4-dihydro-2H-quinazolin-3-yl)-phenyl]-5-chloro-thiophen-2-yl-sulfonylurea calcium salt [Calcium acetate]

Molecule: CNc1cc2[nH]c(=O)n(-c3ccc(NC(=O)NS(=O)(=O)c4ccc(Cl)s4)cc3)c(=O)c2cc1Cl [Example 3, [4-(6-chloro-7-methylamino-2,4-dioxo-1,4-dihydro-2H-quinazolin-3-yl)-phenyl]-5-chloro-thiophen-2-1-sulfonylurea]
IC50 [4]: > 0.5 µM | IC50 [5]: > 30 µM

Molecule: CNc1cc2[nH]c(=O)n(-c3ccc(NC(=O)NS(=O)(=O)c4ccc(Cl)s4)cc3)c(=O)c2cc1F.N [ammonium salt (form A), [4-(6-fluoro-7-methylamino-2,4-dioxo-1,4-dihydro-2H-quinazolin-3-yl)-phenyl]-5-chloro-thiophen-2-yl-sulfonylurea ammonium salt]
stability with respect to 40° C./75% RH by XRPD [1, 8]: improvements in crystallinity

Molecule: CNc1cc2[nH]c(=O)n(-c3ccc(NC(=O)NS(=O)(=O)c4ccc(Cl)s4)cc3)c(=O)c2cc1F.[K] [form C, [4-(6-fluoro-7-methylamino-2,4-dioxo-1,4-dihydro-2H-quinazolin-3-yl)-phenyl]-5-chloro-thiophen-2-yl-sulfonylurea potassium salt]
XRPD after the GVS experiment [2]: reduced in crystallinity | pH ([3]; pH of the suspension in the solubility measurement, potassium salt): 8.7 and 8.8 | Thermodynamic solubility in water ([3]; water): 4500 µg/mL

Molecule: [4-(6-fluoro-7-methylamino-2,4-dioxo-1,4-dihydro-2H-quinazolin-3-yl)-phenyl]-5-chloro-thiophen-2-yl-sulfonylurea tromethamine salt
stability by XRPD ([1]; 3 days at 40° C./75% RH): some subtle changes | Stability: further changes [1, 6]: at 40° C./75% RH but no | Stability [1]: Some changes after 3 days | stability by XRPD [1, 7]: no further changes | GVS: Total weight change 0-90% RH [2]: 4.1 wt %, little hysteresis, | GVS: XRPD post GVS [2]: XRPD post GVS matches

Molecule: CNc1cc2[nH]c(=O)n(-c3ccc(NC(=O)NS(=O)(=O)c4ccc(Cl)s4)cc3)c(=O)c2cc1F.[K] [Potassium hydroxide, [4-(6-fluoro-7-methylamino-2,4-dioxo-1,4-dihydro-2H-quinazolin-3-yl)-phenyl]-5-chloro-thiophen-2-yl-sulfonylurea potassium salt]
stability with respect to 40° C./75% RH by XRPD [1]: converts to an amorphous phase | Aqueous solubility** [3]: 2700 µg/mL

Molecule: CNc1cc2[nH]c(=O)n(-c3ccc(NC(=O)NS(=O)(=O)c4ccc(Cl)s4)cc3)c(=O)c2cc1F.[Na] [Sodium hydroxide, [4-(6-fluoro-7-methylamino-2,4-dioxo-1,4-dihydro-2H-quinazolin-3-yl)-phenyl]-5-chloro-thiophen-2-yl-sulfonylurea sodium salt]
Stability ([1]; sodium salt): Amorphous after 3 days at | stability with respect to 40° C./75% RH by XRPD [1, 8]: converts to an amorphous phase
